Measurements: patent publication US9375497B2, “[F-18]-labeled L-glutamic acid, [F-18]-labeled L-glutamine, derivatives thereof and use thereof and processes for their preparation” (BAYER SCHERING PHARMA AKTIENGESELLSCHAFT, priority 2006, dated 2016)

Legend:
[1] = test system: A549 (non-small-cell bronchial carcinoma) cells; experiment: Tumor cell uptake in A549 cells; type: cell-based, human; conditions: 250 kBq/well, compared to [^18F]FDG
Description: For the evaluation of the tumor cell uptake of [^18F]glutamic acid, cell uptake experiments were carried out in human A549 (non-small-cell bronchial carcinoma) and HT29 (colonic carcinoma) cells. The tumor cell uptake of the glutamic acid derivatives was compared to
[^18F]FDG (gold standard for oncological PET investigations).
FIG. 2: Comparison of the time-dependent tumor cell uptake of [^18F]-4-glutamic acid [20-35 μM] (on the left) and [F-18]FDG [2 μM] (on the right) in A549 cells. The cells were incubated with 250 kBq/well. For displacement experiments, L-glutamic acid (1 mM) or glucose (5 mM) was used (mean value±standard deviation, n=3).

[2] = test system: murine F9 teratocarcinoma model in NMRI nude mice; experiment: Tumor enrichment and tissue distribution, F9 teratocarcinoma model; conditions: for Tumor/tissue quotient, Blood / Tumor/tissue quotient, Brain / Tumor/tissue quotient, Fat / Tumor/tissue quotient, Heart / Tumor/tissue quotient, Intestine / Tumor/tissue quotient, Kidney / Tumor/tissue quotient, Liver / Tumor/tissue quotient, Lung / Tumor/tissue quotient, Muscle / Tumor/tissue quotient, Ovary / Tumor/tissue quotient, Skin / Tumor/tissue quotient, Spleen / Tumor/tissue quotient, Stomach / Tumor/tissue quotient, Uterus: single i.v.; for Tissue uptake, Blood / Tissue uptake, Brain / Tissue uptake, Fat / Tissue uptake, Heart / Tissue uptake, Intestine / Tissue uptake, Kidney / Tissue uptake, Liver / Tissue uptake, Lung / Tissue uptake, Muscle / Tissue uptake, Ovary / Tissue uptake, Skin / Tissue uptake, Spleen / Tissue uptake, Stomach / Tissue uptake, Tumor / Tissue uptake, Uterus: single i.v. 370 kBq
Description: For the evaluation of the tumor enrichment and the tissue distribution in experimental animals, [^18F]-4-glutamic acid was tested in a murine F9 teratocarcinoma model in NMRI nude mice and a murine B16F1 melanoma model in C57BI6 mice.
For this, 1×10^6 cells (F9) or 5×10^5 cells (B16F1) respectively were suspended in 100 μl of phosphate-buffered physiological saline solution and inoculated subcutaneously into the right, rear flank of the corresponding experimental animal species (NMRI for F9 and 057-BI6 for B16F1) (Berndorff et al. Clin. Cancer Res. 2005, 11, 2005). […] [^18F]-4-Glutamic acid (370 kBq, in 100 μl of physiological saline solution) was administered intravenously to the tail vein. […]

With `NC(CC([18F])C(=O)O)C(=O)O` (stereo not drawn) [[^18F]4-glutamic acid, 4-[F-18]fluoroglutamic acid] the tumor cell uptake [1] was “surprisingly high uptake”, the “Tumor/tissue quotient, Blood” value ([2]; 0.25 h (times as Table 1)) was 1.14 and the “Tumor/tissue quotient, Brain” value ([2]; 0.25 h (times as Table 1)) was 5.6. The “Tumor/tissue quotient, Fat” value ([2]; 0.25 h (times as Table 1)) was 5.85, the “Tumor/tissue quotient, Heart” value ([2]; 0.25 h (times as Table 1)) was 1.01 and the “Tumor/tissue quotient, Intestine” value ([2]; 0.25 h (times as Table 1)) was 1.26. The “Tumor/tissue quotient, Kidney” value ([2]; 0.25 h (times as Table 1)) was 0.4, the “Tumor/tissue quotient, Liver” value ([2]; 0.25 h (times as Table 1)) was 0.86 and the “Tumor/tissue quotient, Lung” value ([2]; 0.25 h (times as Table 1)) was 0.57. The “Tumor/tissue quotient, Muscle” value ([2]; 0.25 h (times as Table 1)) was 1.67, the “Tumor/tissue quotient, Ovary” value ([2]; 0.25 h (times as Table 1)) was 2.43 and the “Tumor/tissue quotient, Skin” value ([2]; 0.25 h (times as Table 1)) was 1.25. The “Tumor/tissue quotient, Spleen” value ([2]; 0.25 h (times as Table 1)) was 1.12, the “Tumor/tissue quotient, Stomach” value ([2]; 0.25 h (times as Table 1)) was 1.12 and the “Tumor/tissue quotient, Uterus” value ([2]; 0.25 h (times as Table 1)) was 1.18. The “Tissue uptake, Blood” value ([2]; 0.25 h) was 2.51 % dose/g, the “Tissue uptake, Brain” value ([2]; 0.25 h) was 0.52 % dose/g and the “Tissue uptake, Fat” value ([2]; 0.25 h) was 0.85 % dose/g. For the same molecule, the “Tissue uptake, Heart” value ([2]; 0.25 h) was 2.86 % dose/g, the “Tissue uptake, Intestine” value ([2]; 0.25 h) was 2.28 % dose/g and the “Tissue uptake, Kidney” value ([2]; 0.25 h) was 7.24 % dose/g. For the same molecule, the “Tissue uptake, Liver” value ([2]; 0.25 h) was 3.37 % dose/g, the “Tissue uptake, Lung” value ([2]; 0.25 h) was 5.08 % dose/g and the “Tissue uptake, Muscle” value ([2]; 0.25 h) was 1.72 % dose/g. For the same molecule, the “Tissue uptake, Ovary” value ([2]; 0.25 h) was 1.34 % dose/g, the “Tissue uptake, Skin” value ([2]; 0.25 h) was 2.28 % dose/g and the “Tissue uptake, Spleen” value ([2]; 0.25 h) was 2.56 % dose/g. For the same molecule, the “Tissue uptake, Stomach” value ([2]; 0.25 h) was 2.56 % dose/g, the “Tissue uptake, Tumor” value ([2]; 0.25 h) was 2.90 % dose/g and the “Tissue uptake, Uterus” value ([2]; 0.25 h) was 2.54 % dose/g. The “Tumor/tissue quotient, Blood” value ([2]; 1.0 h (times as Table 1)) was 3.46, the “Tumor/tissue quotient, Brain” value ([2]; 1.0 h (times as Table 1)) was 4.2 and the “Tumor/tissue quotient, Fat” value ([2]; 1.0 h (times as Table 1)) was 7.37. The “Tumor/tissue quotient, Heart” value ([2]; 1.0 h (times as Table 1)) was 2.73, the “Tumor/tissue quotient, Intestine” value ([2]; 1.0 h (times as Table 1)) was 0.97 and the “Tumor/tissue quotient, Kidney” value ([2]; 1.0 h (times as Table 1)) was 1.38. The “Tumor/tissue quotient, Liver” value ([2]; 1.0 h (times as Table 1)) was 3.48, the “Tumor/tissue quotient, Lung” value ([2]; 1.0 h (times as Table 1)) was 1.34 and the “Tumor/tissue quotient, Muscle” value ([2]; 1.0 h (times as Table 1)) was 2.51. The “Tumor/tissue quotient, Ovary” value ([2]; 1.0 h (times as Table 1)) was 5.05, the “Tumor/tissue quotient, Skin” value ([2]; 1.0 h (times as Table 1)) was 3.4 and the “Tumor/tissue quotient, Spleen” value ([2]; 1.0 h (times as Table 1)) was 3.22. For the same molecule, the “Tumor/tissue quotient, Stomach” value ([2]; 1.0 h (times as Table 1)) was 2.45, the “Tumor/tissue quotient, Uterus” value ([2]; 1.0 h (times as Table 1)) was 2.59 and the “Tissue uptake, Blood” value ([2]; 1.0 h) was 0.51 % dose/g. The “Tissue uptake, Brain” value ([2]; 1.0 h) was 0.43 % dose/g, the “Tissue uptake, Fat” value ([2]; 1.0 h) was 0.26 % dose/g and the “Tissue uptake, Heart” value ([2]; 1.0 h) was 0.64 % dose/g. The “Tissue uptake, Intestine” value ([2]; 1.0 h) was 1.83 % dose/g, the “Tissue uptake, Kidney” value ([2]; 1.0 h) was 1.30 % dose/g and the “Tissue uptake, Liver” value ([2]; 1.0 h) was 0.50 % dose/g. The “Tissue uptake, Lung” value ([2]; 1.0 h) was 1.32 % dose/g, the “Tissue uptake, Muscle” value ([2]; 1.0 h) was 0.70 % dose/g and the “Tissue uptake, Ovary” value ([2]; 1.0 h) was 0.41 % dose/g. For the same molecule, the “Tissue uptake, Skin” value ([2]; 1.0 h) was 0.53 % dose/g, the “Tissue uptake, Spleen” value ([2]; 1.0 h) was 0.54 % dose/g and the “Tissue uptake, Stomach” value ([2]; 1.0 h) was 1.26 % dose/g. For the same molecule, the “Tissue uptake, Tumor” value ([2]; 1.0 h) was 1.75 % dose/g, the “Tissue uptake, Uterus” value ([2]; 1.0 h) was 0.72 % dose/g and the “Tumor/tissue quotient, Blood” value ([2]; 2.0 h (times as Table 1)) was 9.06. The “Tumor/tissue quotient, Brain” value ([2]; 2.0 h (times as Table 1)) was 7.06, the “Tumor/tissue quotient, Fat” value ([2]; 2.0 h (times as Table 1)) was 23.67 and the “Tumor/tissue quotient, Heart” value ([2]; 2.0 h (times as Table 1)) was 9.22. For the same molecule, the “Tumor/tissue quotient, Intestine” value ([2]; 2.0 h (times as Table 1)) was 1.54, the “Tumor/tissue quotient, Kidney” value ([2]; 2.0 h (times as Table 1)) was 5.22 and the “Tumor/tissue quotient, Liver” value ([2]; 2.0 h (times as Table 1)) was 9.23. The “Tumor/tissue quotient, Lung” value ([2]; 2.0 h (times as Table 1)) was 4.09, the “Tumor/tissue quotient, Muscle” value ([2]; 2.0 h (times as Table 1)) was 9.5 and the “Tumor/tissue quotient, Ovary” value ([2]; 2.0 h (times as Table 1)) was 17.74. The “Tumor/tissue quotient, Skin” value ([2]; 2.0 h (times as Table 1)) was 9.4, the “Tumor/tissue quotient, Spleen” value ([2]; 2.0 h (times as Table 1)) was 18 and the “Tumor/tissue quotient, Stomach” value ([2]; 2.0 h (times as Table 1)) was 6.85. For the same molecule, the “Tumor/tissue quotient, Uterus” value ([2]; 2.0 h (times as Table 1)) was 6.96, the “Tissue uptake, Blood” value ([2]; 2.0 h) was 0.21 % dose/g and the “Tissue uptake, Brain” value ([2]; 2.0 h) was 0.27 % dose/g. The “Tissue uptake, Fat” value ([2]; 2.0 h) was 0.09 % dose/g, the “Tissue uptake, Heart” value ([2]; 2.0 h) was 0.21 % dose/g and the “Tissue uptake, Intestine” value ([2]; 2.0 h) was 1.21 % dose/g. For the same molecule, the “Tissue uptake, Kidney” value ([2]; 2.0 h) was 0.37 % dose/g, the “Tissue uptake, Liver” value ([2]; 2.0 h) was 0.20 % dose/g and the “Tissue uptake, Lung” value ([2]; 2.0 h) was 0.48 % dose/g. The “Tissue uptake, Muscle” value ([2]; 2.0 h) was 0.42 % dose/g, the “Tissue uptake, Ovary” value ([2]; 2.0 h) was 0.12 % dose/g and the “Tissue uptake, Skin” value ([2]; 2.0 h) was 0.21 % dose/g. The “Tissue uptake, Spleen” value ([2]; 2.0 h) was 0.16 % dose/g, the “Tissue uptake, Stomach” value ([2]; 2.0 h) was 0.33 % dose/g and the “Tissue uptake, Tumor” value ([2]; 2.0 h) was 1.87 % dose/g. For the same molecule, the “Tissue uptake, Uterus” value ([2]; 2.0 h) was 0.32 % dose/g, the tumor enrichment ([2]; F9 teratocarcinoma, 1 h after intravenous administration) was 1.75 % ID/g and the maximal tumor enrichment ([2]; F9 teratocarcinoma, after intravenous injection (15 min)) was 2.90 % ID/g.
